Experimental findings from PubChem BioAssay AID184 (DTP/NCI, 2004) are described below.

This assay concerns BALB/cJ mice, ADJ-PC-6 ip tumor, median survival T/C. The assay is described as follows: NCI In Vivo Anticancer Drug Screen. Data for tumor model ADJ-PC-6 (intraperitoneal) in BALB/cJ mice. To be noted: endpoint: median survival time, higher = longer survival. On the procedure:
The antitumor activity of compounds was measured in mice bearing transplantable tumors. Survival or tumor size were measured and the results are expressed as the measurement made in the treated group (T) divided by the measurement made in the vehicle treated control group (C). The tumor model used in this assay is ADJ-PC-6 (intraperitoneal) in BALB/cJ mice

[1] abbreviates: dose: 10.0 mg/kg/injection, schedule: Q04DX003 (ip), vehicle: saline.
The mark [2] stands for this setting: dose: 20.0 mg/kg/injection, schedule: Q04DX003 (ip), vehicle: saline.
Setting [3] is: dose: 40.0 mg/kg/injection, schedule: Q04DX003 (ip), vehicle: saline.
The mark [4] stands for this setting: dose: 12.5 mg/kg/injection, schedule: Q04DX003 (ip), vehicle: water.
The mark [5] stands for this setting: dose: 50.0 mg/kg/injection, schedule: Q04DX003 (ip), vehicle: water.
Where [6] appears, read: dose: 100.0 mg/kg/injection, schedule: Q04DX003 (ip), vehicle: water.
Setting [7] is: dose: 80.0 mg/kg/injection, schedule: Q04DX003 (ip), vehicle: saline.

Values joined by “and” are separate entries in the source; they are usually repeats but may differ in a detail not shown here. Equal values may be shown once. Inconclusive results and toxic doses are left out.

In the case of `O=C(O)c1ccc(C(=O)O)o1.[NH-]C1CCCCC1[NH-].[Pt+2]`, the T/C (dose: 2.59 mg/kg/injection, schedule: Q04DX003 (ip), vehicle: water) is 265 % of control; the T/C (dose: 4.3 mg/kg/injection, schedule: Q04DX003 (ip), vehicle: water) was 254 % of control; the T/C (dose: 7.2 mg/kg/injection, schedule: Q04DX003 (ip), vehicle: water) was 367 % of control; the T/C (dose: 12.0 mg/kg/injection, schedule: Q04DX003 (ip), vehicle: water) was 234 % of control; the T/C (dose: 20.0 mg/kg/injection, schedule: Q04DX003 (ip), vehicle: water) was 451 % of control.
As for `CC(=O)N(C)c1ccc(Nc2cc(C)[nH]c3ccc4ncnc4c23)cc1`, the T/C under setting [1] was 100 % of control, the T/C under setting [2] was 162 % of control and the T/C under setting [3] is 107 % of control.
Turning to `CCN(CC)CCNc1ccc(C)c2sc3ccccc3c(=O)c12`, the T/C under setting [4] is 103 % of control, the T/C under setting [5] is 113 % of control and the T/C under setting [6] was 91 % of control.
As to `Nc1nc(=S)c2[nH]cnc2[nH]1`, the T/C (dose: 0.5 mg/kg/injection, schedule: Q01DX009 (ip), vehicle: alkali diluted with saline) was 194 % of control and 239 % of control; the T/C (dose: 1.0 mg/kg/injection, schedule: Q01DX009 (ip), vehicle: alkali diluted with saline) was 194 % of control and 267 % of control; the T/C (dose: 2.0 mg/kg/injection, schedule: Q01DX009 (ip), vehicle: alkali diluted with saline) is 194 % of control and 267 % of control; the T/C (dose: 4.0 mg/kg/injection, schedule: Q01DX009 (ip), vehicle: alkali diluted with saline) is 194 % of control.
Turning to `COc1cc([C@@H]2c3cc4c(cc3[C@@H](OC3OC5CO[C@@H](c6cccs6)OC5C(O)C3O)[C@H]3COC(=O)[C@H]23)OCO4)cc(OC)c1O` (some centres not stated), the T/C is 185 % of control (dose: 5.0 mg/kg/injection, schedule: Q04DX003 (ip), vehicle: saline); 151 % of control and 207 % of control under setting [1]; 264 % of control and 301 % of control under setting [2]; 269 % of control and 355 % of control under setting [3]; 337 % of control and 355 % of control under setting [7]; 337 % of control (dose: 160.0 mg/kg/injection, schedule: Q04DX003 (ip), vehicle: saline).
In the case of `CC[C@](O)(C(=O)O)c1cc2n(c(=O)c1CO)Cc1cc3ccccc3nc1-2`, the T/C (dose: 3.75 mg/kg/injection, schedule: Q04DX003 (ip), vehicle: saline) was 111 % of control; the T/C (dose: 7.5 mg/kg/injection, schedule: Q04DX003 (ip), vehicle: saline) is 120 % of control; the T/C under setting [1] is 158 % of control; the T/C (dose: 15.0 mg/kg/injection, schedule: Q04DX003 (ip), vehicle: saline) is 115 % of control; the T/C under setting [2] was 185 % of control; the T/C (dose: 30.0 mg/kg/injection, schedule: Q04DX003 (ip), vehicle: saline) is 158 % of control. Besides, the T/C is 174 % of control under setting [3]; 188 % of control (dose: 60.0 mg/kg/injection, schedule: Q04DX003 (ip), vehicle: saline); 196 % of control under setting [7].
Turning to `CN1N=C(N)c2cn(C3OC(COP(=O)(O)O)C(O)C3O)c3ncnc1c23` (configuration not stated), the T/C (dose: 12.5 mg/kg/injection, schedule: Q04DX003 (ip), vehicle: saline) was 222 % of control; the T/C under setting [4] was 471 % of control; the T/C (dose: 25.0 mg/kg/injection, schedule: Q04DX003 (ip), vehicle: saline) was 222 % of control; the T/C (dose: 25.0 mg/kg/injection, schedule: Q04DX003 (ip), vehicle: water) is 471 % of control; the T/C (dose: 50.0 mg/kg/injection, schedule: Q04DX003 (ip), vehicle: saline) is 222 % of control and 275 % of control and 369 % of control; the T/C under setting [5] was 471 % of control. The T/C is 222 % of control and 275 % of control and 369 % of control (dose: 100.0 mg/kg/injection, schedule: Q04DX003 (ip), vehicle: saline); 471 % of control under setting [6]; 275 % of control and 369 % of control (dose: 200.0 mg/kg/injection, schedule: Q04DX003 (ip), vehicle: saline).
With `S=c1nc[nH]c2nc[nH]c12`, the T/C (dose: 10.0 mg/kg/injection, schedule: Q04DX003 (ip), vehicle: alkali diluted with saline) was 335 % of control; the T/C (dose: 20.0 mg/kg/injection, schedule: Q04DX003 (ip), vehicle: alkali diluted with saline) is 335 % of control; the T/C (dose: 25.0 mg/kg/injection, schedule: Q04DX003 (ip), vehicle: alkali diluted with saline) was 471 % of control; the T/C (dose: 40.0 mg/kg/injection, schedule: Q04DX003 (ip), vehicle: alkali diluted with saline) is 335 % of control; the T/C (dose: 50.0 mg/kg/injection, schedule: Q04DX003 (ip), vehicle: alkali diluted with saline) is 471 % of control; the T/C (dose: 80.0 mg/kg/injection, schedule: Q04DX003 (ip), vehicle: alkali diluted with saline) is 335 % of control. Further, the T/C runs as follows: (dose: 100.0 mg/kg/injection, schedule: Q04DX003 (ip), vehicle: alkali diluted with saline) 178 % of control and 471 % of control; (dose: 100.0 mg/kg/injection, schedule: Q04DX003 (ip), vehicle: alkali diluted with water) 275 % of control and 283 % of control; (dose: 160.0 mg/kg/injection, schedule: Q04DX003 (ip), vehicle: alkali diluted with saline) 335 % of control; (dose: 200.0 mg/kg/injection, schedule: Q04DX003 (ip), vehicle: alkali diluted with saline) 93 % of control; (dose: 200.0 mg/kg/injection, schedule: Q04DX003 (ip), vehicle: alkali diluted with water) 275 % of control and 369 % of control.
Consider `CC(C)NC(=O)OCc1c(COC(=O)NC(C)C)c(-c2ccc(Cl)c(Cl)c2)n2c1CCC2`, for which the T/C by setting is: (dose: 3.75 mg/kg/injection, schedule: Q01DX009 (ip), vehicle: saline with Tween-80) 235 % of control; (dose: 5.0 mg/kg/injection, schedule: Q01DX009 (ip), vehicle: saline with Tween-80) 222 % of control; (dose: 7.5 mg/kg/injection, schedule: Q01DX009 (ip), vehicle: saline with Tween-80) 235 % of control; (dose: 10.0 mg/kg/injection, schedule: Q01DX009 (ip), vehicle: saline with Tween-80) 222 % of control; (dose: 15.0 mg/kg/injection, schedule: Q01DX009 (ip), vehicle: saline with Tween-80) 235 % of control; (dose: 20.0 mg/kg/injection, schedule: Q01DX009 (ip), vehicle: saline with Tween-80) 222 % of control. Also, the T/C is, setting by setting: (dose: 30.0 mg/kg/injection, schedule: Q01DX009 (ip), vehicle: saline with Tween-80) 235 % of control; (dose: 60.0 mg/kg/injection, schedule: Q01DX009 (ip), vehicle: saline with Tween-80) 235 % of control.
Take `ClCC[N+]12CC[N+](CCCl)(CC1)C2`: the T/C is 88 % of control and 96 % of control and 111 % of control (dose: 10.0 mg/kg/injection, schedule: Q01DX009 (ip), vehicle: saline); 100 % of control and 103 % of control (dose: 20.0 mg/kg/injection, schedule: Q01DX009 (ip), vehicle: saline); 106 % of control (dose: 40.0 mg/kg/injection, schedule: Q01DX009 (ip), vehicle: saline); 107 % of control and 113 % of control (2×) (dose: 80.0 mg/kg/injection, schedule: Q01DX009 (ip), vehicle: saline); 96 % of control and 102 % of control and 103 % of control (dose: 160.0 mg/kg/injection, schedule: Q01DX009 (ip), vehicle: saline).
Regarding `COc1cc(NCc2ccc3nc(N)nc(N)c3c2C)cc(OC)c1OC`, the T/C (dose: 3.75 mg/kg/injection, schedule: Q01DX009 (ip), vehicle: Klucel (hydroxypropylcellulose) (HPC)) was 98 % of control; the T/C (dose: 7.5 mg/kg/injection, schedule: Q01DX009 (ip), vehicle: Klucel (hydroxypropylcellulose) (HPC)) was 110 % of control; the T/C (dose: 15.0 mg/kg/injection, schedule: Q01DX009 (ip), vehicle: Klucel (hydroxypropylcellulose) (HPC)) was 115 % of control.
As to `CC1(CO)C(O)CCC2(C)C1CCC1CC3CC12CCC3(O)CO` (configuration not stated), the T/C reads like this: (dose: 37.5 mg/kg/injection, schedule: Q04DX003 (ip), vehicle: Klucel (hydroxypropylcellulose) (HPC)) 92 % of control and 120 % of control; (dose: 75.0 mg/kg/injection, schedule: Q04DX003 (ip), vehicle: Klucel (hydroxypropylcellulose) (HPC)) 115 % of control and 118 % of control; (dose: 150.0 mg/kg/injection, schedule: Q04DX003 (ip), vehicle: Klucel (hydroxypropylcellulose) (HPC)) 100 % of control and 109 % of control; (dose: 600.0 mg/kg/injection, schedule: Q04DX003 (ip), vehicle: Klucel (hydroxypropylcellulose) (HPC)) 106 % of control.
On to `CO[C@@]12[C@H](COC(N)=O)C3=C(C(=O)C(C)=C(N)C3=O)N1C[C@@H]1N[C@@H]12`, for which the T/C is 239 % of control (dose: 1.5 mg/kg/injection, schedule: Q04DX003 (ip), vehicle: saline) and 335 % of control (dose: 3.0 mg/kg/injection, schedule: Q04DX003 (ip), vehicle: saline).
